Measured values as given in ChEMBL document CHEMBL1201862, “PubChem BioAssay data set” (2004).
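Following 48 hours of exposure in 96-well plates, responses at five concentrations were used to interpolate endpoints linearly. Here, GI50 denotes the concentration required for 50% inhibition of growth.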 Calls of active or inactive are those of the source. Rule as the data show it: active = GI50 up to about 1.1 µM and inactive = higher.

How the values were obtained:
Test in all cases: growth of human tumour cells (NCI), 48 h
[1] = tested on: 786-0
[2] = tested on: A549
[3] = tested on: CAKI-1
[4] = tested on: DU-145
[5] = tested on: HL-60
[6] = tested on: HT-29
[7] = tested on: Hs-578T
[8] = tested on: K562
[9] = tested on: KM12
[10] = tested on: Malme-3M
[11] = tested on: NCI-H226
[12] = tested on: NCI-H460
[13] = tested on: RPMI-8226
[14] = tested on: SF-295
[15] = tested on: SF-539
[16] = tested on: SK-MEL-5
[17] = tested on: SNB-75
[18] = tested on: SR
[19] = tested on: U-251
[20] = tested on: UACC-257

## Cc1ccc(S(=O)(=O)Nc2cc(O)nc3c2CCC3)cc1
[1]
  GI50: > 100 µM (inactive)
[2]
  GI50: > 100 µM (inactive)
[3]
  GI50: > 100 µM (inactive)
[4]
  GI50: > 100 µM (inactive)
[5]
  GI50: 34 µM (inactive)
[6]
  GI50: > 100 µM (inactive)
[7]
  GI50: > 100 µM (inactive)
[8]
  GI50: > 100 µM (inactive)
[9]
  GI50: > 100 µM (inactive)
[10]
  GI50: > 100 µM (inactive)
[11]
  GI50: > 100 µM (inactive)
[12]
  GI50: > 100 µM (inactive)
[13]
  GI50: 43.2 µM (inactive)
[14]
  GI50: > 100 µM (inactive)
[15]
  GI50: > 100 µM (inactive)
[16]
  GI50: 73.5 µM (inactive)
[17]
  GI50: > 100 µM (inactive)
[18]
  GI50: > 100 µM (inactive)
[19]
  GI50: > 100 µM (inactive)
[20]
  GI50: > 100 µM (inactive)

## N#C/C(=C/n1c(=S)[nH]c2ccccc21)C(N)=O
[1]
  GI50: > 100 µM (inactive)
[2]
  GI50: > 100 µM (inactive)
[3]
  GI50: > 100 µM (inactive)
[4]
  GI50: > 100 µM (inactive)
[5]
  GI50: 16.7 µM (inactive)
[6]
  GI50: > 100 µM (inactive)
[7]
  GI50: > 100 µM (inactive)
[8]
  GI50: > 100 µM (inactive)
[9]
  GI50: > 100 µM (inactive)
[10]
  GI50: > 100 µM (inactive)
[11]
  GI50: > 100 µM (inactive)
[12]
  GI50: > 100 µM (inactive)
[13]
  GI50: > 100 µM (inactive)
[14]
  GI50: > 100 µM (inactive)
[15]
  GI50: > 100 µM (inactive)
[16]
  GI50: > 100 µM (inactive)
[17]
  GI50: > 100 µM (inactive)
[18]
  GI50: > 100 µM (inactive)
[19]
  GI50: > 100 µM (inactive)
[20]
  GI50: > 100 µM (inactive)

## CC[C@@]1(O)C(=O)OCc2c1cc1n(c2=O)Cc2c-1nc1ccccc1c2/C=N\NC(=O)C(N)Cc1c[nH]cn1 (stereo not given in full)
[1]
  GI50: 0.213 µM (active)
[2]
  GI50: 0.452 µM (active)
[3]
  GI50: 0.147 µM (active)
[4]
  GI50: 0.181 µM (active)
[5]
  GI50: 0.164 µM (active)
[6]
  GI50: 2.1 µM (inactive)
[7]
  GI50: > 64.9 µM (inactive)
[8]
  GI50: 0.468 µM (active)
[9]
  GI50: 2.38 µM (inactive)
[10]
  GI50: 2.53 µM (inactive)
[11]
  GI50: 0.571 µM (active)
[12]
  GI50: 0.0832 µM (active)
[13]
  GI50: 0.356 µM (active)
[14]
  GI50: 0.132 µM (active)
[15]
  GI50: 0.0528 µM (active)
[16]
  GI50: 0.222 µM (active)
[17]
  GI50: 0.067 µM (active)
[18]
  GI50: 0.0101 µM (active)
[19]
  GI50: 0.0776 µM (active)
[20]
  GI50: 2.68 µM (inactive)

## O=C(Nc1nnc(-c2ccccc2)o1)C(SC(=S)N1CCCCC1)c1ccccc1 (stereo not given)
[1]
  GI50: 16.7 µM (inactive)
[2]
  GI50: 17.1 µM (inactive)
[3]
  GI50: 18.9 µM (inactive)
[4]
  GI50: 17.2 µM (inactive)
[5]
  GI50: 3.11 µM (inactive)
[6]
  GI50: 20.6 µM (inactive)
[7]
  GI50: 59.8 µM (inactive)
[8]
  GI50: 9.55 µM (inactive)
[9]
  GI50: 22.9 µM (inactive)
[10]
  GI50: 26.2 µM (inactive)
[11]
  GI50: 25.4 µM (inactive)
[12]
  GI50: 7.66 µM (inactive)
[13]
  GI50: 16.2 µM (inactive)
[14]
  GI50: 14.1 µM (inactive)
[15]
  GI50: 28.1 µM (inactive)
[16]
  GI50: 13.6 µM (inactive)
[17]
  GI50: 30.4 µM (inactive)
[18]
  GI50: 4.98 µM (inactive)
[19]
  GI50: 14.4 µM (inactive)
[20]
  GI50: 32.4 µM (inactive)

## COc1cc2ccccc2oc1=O
[1]
  GI50: > 100 µM (inactive)
[2]
  GI50: > 100 µM (inactive)
[3]
  GI50: 99.3 µM (inactive)
[4]
  GI50: > 100 µM (inactive)
[5]
  GI50: 50.8 µM (inactive)
[6]
  GI50: > 100 µM (inactive)
[7]
  GI50: 45.9 µM (inactive)
[8]
  GI50: > 100 µM (inactive)
[9]
  GI50: > 100 µM (inactive)
[10]
  GI50: 99.1 µM (inactive)
[11]
  GI50: > 100 µM (inactive)
[12]
  GI50: 45.5 µM (inactive)
[13]
  GI50: > 100 µM (inactive)
[14]
  GI50: > 100 µM (inactive)
[15]
  GI50: > 100 µM (inactive)
[16]
  GI50: > 100 µM (inactive)
[17]
  GI50: 57.3 µM (inactive)
[18]
  GI50: > 100 µM (inactive)
[19]
  GI50: > 100 µM (inactive)
[20]
  GI50: > 100 µM (inactive)
